Source: PMC5812297, “Specificity and Application of the Lantibiotic Protease NisP” (Frontiers in Microbiology, 2018)
Entries after “also recorded” stand apart in the source; their conditions may differ. Ends that are not written are not given here.

Test system: NisP
Assay: Cleavage of nisin mutants by NisP in crude supernatants or purified peptide, masses by MALDI-TOF
Format: biochemical, Lactococcus lactis
Conditions: His-tagged purified NisP, overnight 37°C; for Aberrant cleavage / misprocessing by NisP: culture pH (4.5–5.0) or pH 6.0, MALDI-TOF
Experimental: Alternatively, supernatants containing nisin mutant peptides produced after induction were divided into two fractions; one in which the pH was adjusted to 6.0 and the other one where the pH was the actual fermentation pH. They were incubated overnight at 37°C with or without His-tagged purified NisP at a ratio of 1000:1. After the incubation, the supernatants were precipitated using TCA and resuspended in 1/20 volume 0.05% acetic acid. For the mutants that were produced in lower amounts, larger volumes were induced and the peptides were purified by cationic exchange chromatography as described before and separated by reverse phase chromatography using a Jupiter 4 μm Proteo 90 Å 250 × 4.6 mm C12 analytical column (Phenomenex). The column was equilibrated in 20% organic solvent (acetonitrile 0.1% TFA) before the sample injection. It was washed for 5 min before applying a linear gradient from 20 to 50% organic solvent in 20 min. 1 μl of each collected peak was used for mass-spectrometry determination.
Mass spectrometry analysis of the samples was performed by matrix-assisted laser desorption/ionization (MALDI) time-of-flight (ToF) in an ABI Voyager DE Pro (Applied Biosystems) operating in linear mode as previously described using external calibration (van Heel et al., [2013]). Briefly, 1 μl sample was spotted, dried and washed with 5 μL Milli-Q water, on the target. Next, 1 μl of α-cyano-4-hydroxycinnamic acid 5 mg/ml (Sigma-Aldrich) was spotted on the sample.
We designed a set of nisin mutants to investigate the specificity of NisP (Figure 4). For all these mutants, supernatants were collected after induction and divided into three fractions. NisP was added to two of these fractions, one maintaining the pH of the culture (4.5–5.0) and the other fraction was adjusted to pH 6.0. The third fraction was used as an untreated control. After cleavage, the masses of the peptides were monitored by MALDI-TOF (Table 2).

Which “Aberrant cleavage / misprocessing by NisP” value does the source give for “nisin I1K: Nisin I1K mutant (MSTKDFNLDLVSVSKKDSGASPRKTSISLCTPGCKTGALMGCNMKTATCHCSIHVSK; ends and bridges not checked; cysteine pairing not given here; UniProt P13068 1-57, looked up, variant I1K)” here?
The value was “a small fraction of mature nisin with a mass difference consistent with the presence of Arg P1 in the mature peptide”.

And the “Aberrant cleavage / misprocessing by NisP” value (listed as I1K)?
The value was “a small additional peak detected by mass-spectrometry consistent with a cleavage between positions P2 and P1”.

How did the “Aberrant cleavage / misprocessing by NisP” value turn out when “nisin-C7A: Nisin C7A mutant, lacking the first ring (MSTKDFNLDLVSVSKKDSGASPRITSISLATPGCKTGALMGCNMKTATCHCSIHVSK; not fully specified; cysteine pairing not given here; UniProt P13068 1-57, looked up, variant C7A)” was run?
The value was “small peaks corresponding to peptides cleaved at abnormal P1 or P2 positions in the leader peptide; also recorded: a small fraction of nisin lacking the first amino acid(s)”.

“nisin I1D: Nisin I1D mutant (MSTKDFNLDLVSVSKKDSGASPRDTSISLCTPGCKTGALMGCNMKTATCHCSIHVSK; ends and bridges not checked; cysteine pairing not given here; UniProt P13068 1-57, looked up, variant I1D)” was tested. Which “Cleavage by NisP” value (ratio 1000:1, culture pH (4.5–5.0) or pH 6.0, MALDI-TOF) did it give?
Its value is “a small fraction of uncleaved peptide after the incubation of the mutant nisin I1D with the protease, which indicates reduced cleavage efficiency”.

Which “Aberrant cleavage / misprocessing by NisP” value does the source give for “nisin-ringA-less: Nisin (T2V S3A S5A C7A) mutant (MSTKDFNLDLVSVSKKDSGASPRIVAIALATPGCKTGALMGCNMKTATCHCSIHVSK; not fully specified; cysteine pairing not given here; UniProt P13068 1-57, looked up, variant T2V S3A S5A C7A)” here?
Its value is “small peaks corresponding to peptides cleaved at abnormal P1 or P2 positions in the leader peptide; also recorded: a small fraction of nisin lacking the first amino acid(s)”.
